Reference: US6737383B1, “Herbicidal oxadiazolidines” (priority 1999, dated 2004)

Columns and labels:
[1] = tested on: wild oat; test: Test B pre/postemergence wild oat; assay type: in vivo, Avena fatua
Outline: (§1)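 Herbicidal effect was estimated by eye on a ten-point control scale after plants spent twelve to sixteen days in a greenhouse following soil or foliar treatment. Foliar sprays targeted plants at one to four leaves; all doses were formulated in a non-phytotoxic solvent with surfactant.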

[2] = tested on: soybean; test: Test B pre/postemergence soybean; assay type: in vivo, Glycine max
Outline: as §1

[3] = tested on: giant foxtail; test: Test B pre/postemergence giant foxtail; assay type: in vivo, Setaria faberii
Outline: as §1

[4] = tested on: sugar beet; test: Test B pre/postemergence sugar beet; assay type: in vivo, Beta vulgaris
Outline: as §1

[5] = tested on: cocklebur; test: Test B pre/postemergence cocklebur; assay type: in vivo, Xanthium strumarium
Outline: as §1

[6] = tested on: corn; test: Test B pre/postemergence corn; assay type: in vivo, Zea mays
Outline: as §1

[7] = tested on: rice; test: Test B flood test rice; assay type: in vivo, Oryza sativa
Outline: (§2)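 Flood test on plants grown to the 2-leaf stage; treated plants kept in greenhouse twelve to sixteen days, then visually rated against controls on a 0 (no effect) to 10 (complete control) scale.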

[8] = tested on: crabgrass; test: Test B pre/postemergence crabgrass; assay type: in vivo, Digitaria sanguinalis
Outline: as §1

[9] = tested on: smallflower flatsedge; test: Test B flood test smallflower flatsedge; assay type: in vivo, Cyperus difformis
Outline: as §2

[10] = tested on: surinam grass; test: Test B pre/postemergence surinam grass; assay type: in vivo, Brachiaria decumbens
Outline: as §1

[11] = tested on: purple nutsedge; test: Test B pre/postemergence purple nutsedge; assay type: in vivo, Cyperus rotundus; settings: for Nutsedge plant response rating: Postemergence; for Plant response rating, Nutsedge: Preemergence
Outline: as §1

[12] = tested on: bamyardgrass; test: Test B flood test barnyardgrass; assay type: in vivo, Echinochloa crus-galli
Outline: as §2

[13] = tested on: blackgrass; test: Test B pre/postemergence blackgrass; assay type: in vivo, Alopecurus myosuroides
Outline: as §1

[14] = tested on: bedstraw; test: Test B pre/postemergence bedstraw; assay type: in vivo, Galium aparine
Outline: as §1

[15] = tested on: velvetleaf; test: Test B pre/postemergence velvetleaf; assay type: in vivo, Abutilon theophrasti
Outline: as §1

[16] = tested on: pigweed; test: Test B pre/postemergence pigweed; assay type: in vivo, Amaranthus retroflexus
Outline: as §1

[17] = Postemergence, Rate 62 g/ha, scale 0 to 10, 0 is no effect, 10 is complete control
[18] = Postemergence, Rate 250 g/ha, scale 0 to 10, 0 no effect, 10 complete control
[19] = Preemergence, Rate 125 g/ha, scale 0 to 10 (0 no effect, 10 complete control)
[20] = Preemergence, Rate 250 g/ha, scale of 0 to 10 where 0 is no effect and 10 is complete control
[21] = Preemergence, Rate 500 g/ha, scale 0 (no effect) to 10 (complete control)
[22] = Rate 125 g/ha, Postemergence, scale 0 to 10, 0 no effect, 10 complete control
[23] = Rate 500 g/ha, Postemergence, scale 0 to 10, 0 no effect, 10 complete control
[24] = Preemergence, Rate 62 g/ha, scale 0 to 10, 0 is no effect, 10 is complete control
[25] = Rate 125 g/ha, Pre-emergence, flood test species, scale 0 to 10 where 0 is no effect and 10 is complete control
[26] = Rate 250 g/ha, headed Pre-emergence (flood test species), scale 0 to 10 (0 no effect, 10 complete control)
[27] = Rate 500 g/ha, headed Pre-emergence (flood test species), scale 0 to 10 (0 no effect, 10 complete control)
[28] = Rate 1000 g/ha, Pre-emergence (as headed), scale 0 to 10
[29] = Rate 2000 g/ha, Pre-emergence (as headed), scale 0 to 10

Cc1cccc(C)c1-n1c(=O)on(C(=O)N(c2ccc(Cl)cc2)C(C)C)c1=O [Compound 47]
8: Barnyardgrass plant response rating ([12]; Rate 2000 g/ha, Pre-emergence (as headed), scale 0 to 10, 0 no effect, 10 complete control)
2: Soybean plant response rating [2, 17] | Soybean plant response rating [2, 18] | Soybean plant response rating [2, 22] | Soybean plant response rating [2, 23] | Plant response rating, Giant foxtail [3, 19] | Giant foxtail plant response rating [3, 23] | Cocklebur plant response rating [5, 18] | Cocklebur plant response rating [5, 23] | Plant response rating, Crabgrass [8, 19] | Plant response rating, Crabgrass [8, 20] | Crabgrass plant response rating [8, 23] | S. Flatsedge plant response rating ([9]; Pre-emergence, Rate 1000 g/ha, scale 0 to 10 (0 no effect, 10 complete control)) | S. Flatsedge plant response rating [9, 26] | Plant response rating, S. Flatsedge [9, 27] | Redroot pigweed plant response rating [16, 23]
5: Crabgrass plant response rating [8, 21]
3: Wild oats plant response rating [1, 23] | Plant response rating, Giant foxtail [3, 20] | Giant foxtail plant response rating [3, 21] | Bedstraw plant response rating [14, 22]
6: Barnyardgrass plant response rating [12, 28] | Bedstraw plant response rating [14, 18]
1: Plant response rating, Barnyardgrass [12, 27]
0: Wild oats plant response rating [1, 17] | Wild oats plant response rating [1, 18] | Plant response rating, Wild oats [1, 19] | Plant response rating, Wild oats [1, 20] | Wild oats plant response rating [1, 21] | Wild oats plant response rating [1, 22] | Plant response rating, Soybean [2, 24] | Plant response rating, Soybean [2, 19] | Plant response rating, Soybean [2, 20] | Soybean plant response rating [2, 21] | Giant foxtail plant response rating [3, 17] | Giant foxtail plant response rating [3, 18] | Plant response rating, Giant foxtail [3, 24] | Giant foxtail plant response rating [3, 22] | Sugarbeets plant response rating [4, 17] | Sugarbeets plant response rating [4, 18] | Plant response rating, Sugarbeets [4, 24] | Plant response rating, Sugarbeets [4, 19] | Plant response rating, Sugarbeets [4, 20] | Sugarbeets plant response rating [4, 21] | Sugarbeets plant response rating [4, 22] | Sugarbeets plant response rating [4, 23] | Cocklebur plant response rating [5, 17] | Plant response rating, Cocklebur [5, 24] | Plant response rating, Cocklebur [5, 19] | Plant response rating, Cocklebur [5, 20] | Cocklebur plant response rating [5, 21] | Cocklebur plant response rating [5, 22] | Corn plant response rating [6, 17] | Corn plant response rating [6, 18] | Plant response rating, Corn [6, 24] | Plant response rating, Corn [6, 19] | Plant response rating, Corn [6, 20] | Corn plant response rating [6, 21] | Corn plant response rating [6, 22] | Corn plant response rating [6, 23] | Rice plant response rating [7, 25] | Rice plant response rating [7, 26] | Plant response rating, Rice [7, 27] | Rice plant response rating [7, 28] | Rice plant response rating [7, 29] | Crabgrass plant response rating [8, 17] | Crabgrass plant response rating [8, 18] | Plant response rating, Crabgrass [8, 24] | Crabgrass plant response rating [8, 22] | S. Flatsedge plant response rating [9, 25] | S. Flatsedge plant response rating [9, 29] | B. signalgrass plant response rating [10, 17] | B. signalgrass plant response rating [10, 18] | Plant response rating, B. signalgrass [10, 24] | Plant response rating, B. signalgrass [10, 19] | Plant response rating, B. signalgrass [10, 20] | B. signalgrass plant response rating [10, 21] | B. signalgrass plant response rating [10, 22] | B. signalgrass plant response rating ([10]; Rate 500 g/ha, Postemergence, scale of 0 to 10 where 0 is no effect and 10 is complete control) | Nutsedge plant response rating ([11]; Rate 62 g/ha, scale 0 to 10, 0 is no effect, 10 is complete control) | Nutsedge plant response rating ([11]; Rate 250 g/ha, scale 0 to 10, 0 no effect, 10 complete control) | Plant response rating, Nutsedge ([11]; Rate 125 g/ha, scale 0 to 10 (0 no effect, 10 complete control)) | Plant response rating, Nutsedge ([11]; Rate 250 g/ha, scale of 0 to 10 where 0 is no effect and 10 is complete control) | Nutsedge plant response rating ([11]; Rate 125 g/ha, scale 0 to 10, 0 no effect, 10 complete control) | Nutsedge plant response rating ([11]; Rate 500 g/ha, scale 0 to 10, 0 no effect, 10 complete control) | Barnyardgrass plant response rating [12, 25] | Barnyardgrass plant response rating [12, 26] | Blackgrass plant response rating [13, 17] | Blackgrass plant response rating [13, 18] | Plant response rating, Blackgrass [13, 24] | Plant response rating, Blackgrass [13, 19] | Plant response rating, Blackgrass [13, 20] | Blackgrass plant response rating [13, 21] | Blackgrass plant response rating [13, 22] | Blackgrass plant response rating [13, 23] | Bedstraw plant response rating [14, 17] | Plant response rating, Bedstraw [14, 19] | Plant response rating, Bedstraw [14, 20] | Bedstraw plant response rating [14, 21] | Velvetleaf plant response rating [15, 17] | Velvetleaf plant response rating [15, 18] | Plant response rating, Velvetleaf [15, 24] | Plant response rating, Velvetleaf [15, 19] | Plant response rating, Velvetleaf [15, 20] | Velvetleaf plant response rating [15, 21] | Velvetleaf plant response rating [15, 22] | Velvetleaf plant response rating [15, 23] | Redroot pigweed plant response rating [16, 17] | Redroot pigweed plant response rating [16, 18] | Plant response rating, Redroot pigweed [16, 24] | Plant response rating, Redroot pigweed [16, 19] | Plant response rating, Redroot pigweed [16, 20] | Redroot pigweed plant response rating [16, 21] | Redroot pigweed plant response rating [16, 22]
